Read-outs that look alike come from different tables or passages of the source.
Tests used:
[1] = in vivo; cited from earlier work
[2] = system: angiotensin converting enzyme (ACE); settings: rats, 20, 25, and 30 days post-treatment; cited from earlier work
[3] = rat, in vivo, 65 mg/kg; cited from earlier work
glutathione reductase = settings: cited from earlier work
renal cortex = settings: cited from earlier work
[4] = CMV patients; cited from earlier work
[5] = rats, cited from earlier work
[6] = rats, began on day 3; cited from earlier work
[7] = rabbit, in vivo; cited from earlier work
[8] = Clinical chemistry of the dosed rats; format: in vivo; settings: rats given the high dosage
rat hepatocytes = settings: cited from earlier work
[9] = rats fed hydralazine, compared to control groups; cited from earlier work
[10] = rats and mice, varying doses; cited from earlier work
[11] = rat, in vivo; cited from earlier work
[12] = system: glomerular epithelial cell; settings: rat, in vivo; cited from earlier work
[13] = four HIV-positive patients treated for toxoplasmosis; cited from earlier work
[14] = treatment 2 to 25 years; cited from earlier work
[15] = male Wistar rats, daily doses within human therapeutic range; cited from earlier work

9-[(2-hydroxyethyl) methyl] guanine [ACYCLOVIR]
excretion [1]: most of it is excreted in the urine largely unchanged

COc1cccc2c1C(=O)c1c(O)c3c(c(O)c1C2=O)C[C@@](O)(C(=O)CO)C[C@@H]3O[C@H]1C[C@H](N)[C@H](O)[C@H](C)O1 [ADR]
serum ACE levels [2]: serum ACE levels were significantly elevated

N.N.O=C([O-])C1(C(=O)[O-])CCC1.[Pt+2] [CARBOPLATIN]
CGT excretion [3]: increased approximately two-fold

O=C(Cc1cccs1)N[C@@H]1C(=O)N2C(C(=O)[O-])=C(C[n+]3ccccc3)CS[C@H]12 [CEPHALORIDINE]
glutathione reductase activity (glutathione reductase): inhibited glutathione reductase | reduced glutathione (GSH) in the renal cortex (renal cortex): depleted reduced glutathione (GSH)

Nc1ccn(C[C@@H](CO)OCP(=O)(O)O)c(=O)n1 [CIDOFOVIR]
patients with dose-dependent asymptomatic proteinuria [4]: Approximately 40% | patients with elevated serum creatinine levels [4]: 25%

N.N.[Cl][Pt][Cl] [CISPLATIN, Pt(NH3)2(Cl)2]
BUN ([5]; day 2, high-dose groups (10-15 mg/kg)): six or seven-fold elevation in BUN | BUN ([5]; day 4, 5 mg/kg group): BUN elevation was noted | serum creatinine levels [6]: elevations in serum creatinine levels

CC1=C2C(=CO[C@H](C)[C@H]2C)C(O)=C(C(=O)O)C1=O [CITRININ]
creatinine clearance, blood urea nitrogen, serum creatinine (renal failure) [7]: decreased creatinine clearance and increased blood urea nitrogen and serum-creatinine levels

O=C(O)c1cc(-c2ccc(F)cc2F)ccc1O [DIFLUNISAL]
concentrations of creatinine [8]: increased concentrations of creatinine | LDH leakage (rat hepatocytes; 500 μM, compared to control): increase LDH leakage | intracellular ATP concentrations (rat hepatocytes): decreased intracellular ATP concentrations

NNc1nncc2ccccc12 [HYDRALAZINE]
kidney copper concentrations [9]: kidney copper concentrations were increased

NCCC(O)(P(=O)(O)O)P(=O)(O)O [PAMIDRONATE]
body weight and creatinine clearance [10]: significant weight loss and a decrease in creatinine clearance

CN(C)c1ncnc2c1ncn2[C@@H]1O[C@H](CO)[C@@H](N)[C@H]1O [PAN, puromycin aminonucleoside]
proteinuria [11]: led to proteinuria | glomerular epithelial cell apoptosis [12]: induced glomerular epithelial cell apoptosis

Nc1ccc(S(=O)(=O)Nc2ncccn2)cc1 [SULFADIAZINE]
clinical renal adverse findings [13]: developed oliguria, abdominal pain, renal failure

LITHIUMCHLORIDE
patients with nephrogenic diabetes insipidus (NDI) [14]: ~90% | patients with nephrotic proteinuria [14]: Approximately one fourth | polyuria [15]: marked polyuria within three weeks

Source: patent US7415358B2, “Molecular toxicology modeling” (Ocimum Biosolutions, Inc., priority 2001, dated 2008)
